Results as given in publication PMC8304783, “Antiadhesive Properties of Imidazolium Ionic Liquids Based on (−)-Menthol Against Candida spp” (International Journal of Molecular Sciences, 2021).
Read-outs that look alike come from different tables or passages of the source.

Columns and labels:
Format in all cases: cell-based
C. albicans [1] = test: Detachment of adherent cells from polystyrene (crystal violet); conditions: C. albicans on polystyrene, 2 h treatment; over MIC, 2 × MIC and 4 × MIC
Method: (§1) Thus, for the evaluation of ILs on fungal adhesion, higher concentrations were used, corresponding to 1, 2 and 4 times the MIC90 values (Figure 1).
(§2) Figure 1 Detachment of adherent Candida spp. cells after 2 h incubation on polystyrene surfaces by ionic liquids (ILs) (A) or amphotericin B (AMB) (B) (means ± SD; n = 3). Results are presented as percentage of adherent cells relative to untreated controls (100% adhesion). Statistical analysis of detachment at each concentration was performed towards corresponding control experiments (fungi untreated by ILs or AMB = 100% adhesion) (*, p < 0.05 and **, p < 0.01).
(§3) Post-adherence treatment with ILs was performed in a similar manner to that described previously by our team. Candida spp. suspensions were prepared by centrifuging YPD-grown cultures and resuspending fungal mass in PBS to an OD600 = 0.6. Sterile 96-well plates were inoculated with the prepared suspensions and incubated for 2 h at 37 °C to induce fungal adhesion. Afterwards, adherent cells were washed with PBS to remove planktonic cells and treated with ILs (concentrations equivalent to 1, 2 or 4 × MIC90 for each fungi) for 2 h at 37 °C. Then, each well was washed with PBS and adherent cells were fixed with 0.1% CV solution for 5 min, and washed with PBS. Cells were then treated with a solution of isopropanol 0.04 N HCL with 0.1% SDS to permeabilize adherent cells and release the CV dye. The absorbance of CV was measured at 590 nm (ASYS UVM 340 Biogenet). The percentage of cells that were removed was determined in comparison to adherent cells treated with PBS only (designated 100% adhesion).

C. glabrata = test: as above; conditions: C. glabrata on polystyrene, 2 h treatment
Method: as §1, §2, §3

C. krusei = test: as above; conditions: C. krusei on polystyrene, 2 h treatment; over MIC, 2 × MIC and 4 × MIC
Method: as §1, §2, §3

C. parapsilosis = test: as above; conditions: C. parapsilosis on polystyrene, 2 h treatment, 2 × MIC and 4 × MIC
Method: as §1, §2, §3

C. albicans [2] = test: Calcofluor white staining (cell wall integrity); conditions: ILs 25 µM, 2 h, 37 °C
Method: Fungal adhesion to biomedical surfaces is strongly related to the structure of the cell wall, and the presence of adhesins (Als proteins) on the surface of the cell. In turn, the progression to biofilm formation is dependent on the ability of C. albicans to form hyphae. In conditions similar to those above (ILs conc. = 25 µM), we examined C. albicans cell wall integrity, its ability to form hyphae, and the level of ALS genes expression, encoding Als1 and Als5 adhesins (Figure 3). […] Despite some reduction, the result was not statistically significant (p = 0.12). On the other hand, after the treatment with IL 2a, the expression of ALS1 and ALS5 genes was reduced by 50 or 55%, respectively (Figure 3C). The results were statistically significant in both cases (p = 0.04 for either ALS gene). However, in case of compounds with alkyl substituents (1a and 1b), the reduction of gene expression was to a lesser degree. […] Despite observing a chain-length dependence, the results were not statistically significant (p = 0.07 for both ALS gene after treatment with 1b).
Calcofluor white was used to assess cell wall integrity in C. albicans, following our protocol. YPD-grown C. albicans cells were pelleted, washed with PBS and treated with ILs (conc. = 25 µM) for 2 h at 37 °C. Afterwards, the samples were washed with PBS, stained with calcofluor white (final conc. = 25 µM) for 5 min. Then, cell suspensions were washed with PBS, pelleted and observed under the Zeiss (Poznań, Poland) Axio Imager A2 microscope equipped with Zeiss Axiocam 503 mono microscope camera and the Zeiss HBO100 mercury lamp.

C. albicans B3 = test: MIC90 and MFC towards clinical isolates; conditions: Candida albicans, clinical isolate B3 (FLC-sensitive); for MFC: read-out: Minimal fungicidal concentration (MFC); for MIC90: read-out: Minimal inhibitory concentration (MIC90)
Method: (§4) Experiments were performed according to the Clinical and Laboratory Standards Institute (2008), 3rd ed. M27-A3 [51], with modifications described previously. Briefly, MICs were determined by serially diluting ILs in YPD medium in sterile 96-well plates (Sarstedt) and inoculating with fungal suspensions (final OD600 per well = 0.01). After incubation (48 h; 28 °C), the OD600 was measured (ASYS UVM 340 Biogenet). […] Each well was then replated on YPD agar and incubated for 5 days at 28 °C.
(§5) The effect of imidazolium ILs based on of (1R,2S,5R)‐(−)‐menthol was evaluated on clinical, fluconazole(FLC)‐resistant and FLC‐sensitive C. albicans isolates. C. albicans Gu4 and Gu5 strains were isolated from a patient before and after fluconazole administration, respectively.
(§6) Azole‐resistance of Gu5 origins in overexpression of CDR1 and CD R2. C. albicans B3 and B4 strains […]
(§7) Azole‐resistance of B4 results from overexpression of MDR1. The strains were generous gifts from Prof. S. Milewski (Gdańsk, Poland) and Prof. J. Morschhäuser (Wurzburg, Germany). They are originally referenced in: Franz, R., Ruhnke, M. & Morschhäuser, J. Molecular aspects of fluconazole resistance development in Candida albicans. Mycoses 42, 453–458, (1999).
(§8) Table S1 summarizes the minimal inhibitory and fungicidal concentration (MIC90 and MFC, respectively) values of ILs tested against the C. albicans isolates (for ILs structures see section 5.2. in the mai n text). No difference in case of MIC90 values between the strains was observed. However, MFC values were two‐fold lower for the compounds 1b and 2a in case of B3 and B4 isolates. The MFC value of the compound 1a wa s two‐fold higher on ly in ca se of Gu5 strain.
(§9) Table S1. Minimal inhibitory concentrations (MIC90; μM) and minimal fungicidal concentrations (MFC; μM) of ionic liquids (ILs ) or fluconazole (FLC) towards clinical C. albicans isolates.

C. albicans Gu4 = test: MIC90 and MFC towards clinical isolates; conditions: Candida albicans, clinical isolate Gu4 (FLC-sensitive); for MFC: read-out: Minimal fungicidal concentration (MFC); for MIC90: read-out: Minimal inhibitory concentration (MIC90)
Method: as §4, §5, §6, §7, §8, §9

C. albicans B4 = test: MIC90 and MFC towards clinical isolates; conditions: Candida albicans
Method: as §4, §5, §6, §7, §8, §9

C. albicans Gu5 = test: MIC90 and MFC towards clinical isolates; conditions: Candida albicans
Method: as §4, §5, §6, §7, §8, §9

[3] = highest concentration (4 × MIC)
[4] = B4, read-out: Minimal fungicidal concentration (MFC)
[5] = B4, read-out: Minimal inhibitory concentration (MIC90)
[6] = GU5, read-out: Minimal fungicidal concentration (MFC)
[7] = GU5, read-out: Minimal inhibitory concentration (MIC90)

In the case of `CCCCCCCCCn1cc[n+](CO[C@@H]2C[C@H](C)CC[C@H]2C(C)C)c1` [1a, 1-[(1R,2S,5R)-(−)-menthoxymethyl]-3-nonylimidazolium chloride], the Reduction of adhesion (C. albicans [1]) is reported as “did not influence the adherent properties”, the Reduction of adhesion (C. glabrata; [3]) is reported as ~ 40% and the Reduction of adhesion (C. krusei) is reported as “approximately 10%”. For the same compound, the Reduction of adhesion (C. parapsilosis; over MIC) was “did not influence the adherent properties”, the “Calcofluor white staining of chitin (cell wall integrity)” value (“Calcofluor white staining of chitin” below) (C. albicans [2]) was “well-defined, intense chitin fluoresce with clearly visible bud scars, comparable with the control staining” and the MFC (C. albicans B3) was 25 µM. It also gave an MIC90 (C. albicans B3) of 12.5 µM, an MFC (C. albicans Gu4) of 25 µM and an MIC90 (C. albicans Gu4) of 12.5 µM. For the same compound, the MFC (C. albicans B4; clinical isolate B4 (FLC-resistant, MDR1 overexpression), read-out: Minimal fungicidal concentration (MFC)) was 25 µM, the MIC90 (C. albicans B4; clinical isolate B4 (FLC-resistant, MDR1 overexpression), read-out: Minimal inhibitory concentration (MIC90)) was 12.5 µM and the MFC (C. albicans Gu5; clinical isolate Gu5 (FLC-resistant, CDR1/CDR2 overexpression), read-out: Minimal fungicidal concentration (MFC)) was 50 µM. For the same compound, the MIC90 (C. albicans Gu5; clinical isolate Gu5 (FLC-resistant, CDR1/CDR2 overexpression), read-out: Minimal inhibitory concentration (MIC90)) was 12.5 µM.
`CCCCCCCCCCn1cc[n+](CO[C@@H]2C[C@H](C)CC[C@H]2C(C)C)c1` [1b, 3-decyl-1-[(1R,2S,5R)-(−)-menthoxymethyl]imidazolium chloride] was tested, and the Reduction of adhesion (C. albicans [1]) was 20–25%, the Reduction of adhesion (C. glabrata; 2 × MIC and 4 × MIC) was ~ 20% and the Reduction of adhesion (C. krusei) was “did not significantly reduce”. For the same compound, the Reduction of adhesion (C. parapsilosis) was 20–25%, the “Calcofluor white staining of chitin” value (C. albicans [2]) was “well-defined, intense chitin fluoresce with clearly visible bud scars, comparable with the control staining” and the MFC (C. albicans B3) was 25 µM. The MIC90 (C. albicans B3) was 25 µM, the MFC (C. albicans Gu4) was 50 µM and the MIC90 (C. albicans Gu4) was 25 µM. For the same compound, the MFC (C. albicans B4; [4]) was 25 µM, the MIC90 (C. albicans B4; [5]) was 25 µM and the MFC (C. albicans Gu5; [6]) was 50 µM. For the same compound, the MIC90 (C. albicans Gu5; [7]) was 25 µM.
For `CCCCCCCCCOCn1cc[n+](CO[C@@H]2C[C@H](C)CC[C@H]2C(C)C)c1` [2a, 1-(1R,2S,5R)-(−)-menthoxymethyl-3-nonyloxymethylimidazolium chloride], the Reduction of adhesion (C. albicans [1]) was 20–30%, the Reduction of adhesion (C. glabrata; [3]) was “approximately 45%” and the Reduction of adhesion (C. krusei) was 10–20%. For the same compound, the Reduction of adhesion (C. parapsilosis; over MIC) was 30–40%, the “Calcofluor white staining of chitin” value (C. albicans [2]) was “low fluorescence intensity and thinner calcofluor white-stained chitin layer surrounding cells than the controls” and the MFC (C. albicans B3) was 12.5 µM. The MIC90 (C. albicans B3) was 12.5 µM, the MFC (C. albicans Gu4) was 25 µM and the MIC90 (C. albicans Gu4) was 12.5 µM. It also gave an MFC (C. albicans B4; [4]) of 12.5 µM, an MIC90 (C. albicans B4; [5]) of 12.5 µM and an MFC (C. albicans Gu5; [6]) of 25 µM. For the same compound, the MIC90 (C. albicans Gu5; [7]) was 12.5 µM.
